From patent US8815919B2, “Oxadiazole derivatives” (Merck Serono SA, priority 2009, dated 2014)
Where a name gives a salt, the structure may show the parent alone. Read-outs that look alike come from different tables or passages of the source.

Tests used:
S1P1 [1] = target: T1, S1P1 (Homo sapiens, UniProt P21453); test: Receptor binding assay, [33P]sphingosine 1-phosphate competition, S1P1 membranes, WGA SPA beads
Procedure: (§1) Membranes were prepared from CHO cells expressing S1P1 or S1P3 for use in ligand and […] binding studies. Cells were suspended in 50 mM TRIS, pH 7.4, 2 mM EDTA, 250 mM Sucrose (buffer A) and 1× Complete protease inhibitor cocktail (Roche), and disrupted at 4° C. by N2 decompression using a cell disruption bomb (Parr Instrument). Following centrifugation at 1000 RPM for 10 min at 4° C., the supernatant was diluted (2×) in buffer A and centrifuged again at 19000 RPM for 75 min at 4° C. The pellet was then suspended in 10 mM HEPES, pH 7.4, 1 mM EDTA, 250 mM Sucrose (Buffer B), and 1× Complete EDTA-free protease inhibitor cocktail and homogenized using a potter. Membranes were flash frozen in liquid N2 and stored at −80° C.
(§2) Receptor binding assay: [33P]sphingosine 1-phosphate (3000 Ci/mmol; American Radiolabeled Chemicals, Inc.) was added to test compounds in 20% DMSO by competition. Membranes and WGA SPA beads (GE Healthcare) were added to give a final volume of 100 μl in 96-well plates or 50 μl in 384-well plates with assay concentrations of […] [33P]sphingosine 1-phosphate (respectively for S1P1 or S1P3), 50 mM HEPES, pH 7.5, 5 mM MgCl2, 100 mM NaCl, 0.4% fatty acid-free BSA, 1-5 μg/well of proteins in 96-well plates vs 0.6-1 μg/well of proteins in 384-well plates and 100 μg/well of WGA SPA beads in 96-well plates vs 75 μg/well of WGA SPA beads in 384-well plates. Binding was performed for 60 min at RT on a shaker and bound radioactivity was measured on a PerkinElmer 1450 MicroBeta counter. Triplicate samples were averaged and normalized as percentage of inhibition relative to total binding (only DMSO in well) and nonspecific binding (1000-fold excess of unlabeled S1P). Binding data were analyzed using the GraphPad Prism program or Genedata software.
Target sequence in this assay (P21453 whole entry, species assumed): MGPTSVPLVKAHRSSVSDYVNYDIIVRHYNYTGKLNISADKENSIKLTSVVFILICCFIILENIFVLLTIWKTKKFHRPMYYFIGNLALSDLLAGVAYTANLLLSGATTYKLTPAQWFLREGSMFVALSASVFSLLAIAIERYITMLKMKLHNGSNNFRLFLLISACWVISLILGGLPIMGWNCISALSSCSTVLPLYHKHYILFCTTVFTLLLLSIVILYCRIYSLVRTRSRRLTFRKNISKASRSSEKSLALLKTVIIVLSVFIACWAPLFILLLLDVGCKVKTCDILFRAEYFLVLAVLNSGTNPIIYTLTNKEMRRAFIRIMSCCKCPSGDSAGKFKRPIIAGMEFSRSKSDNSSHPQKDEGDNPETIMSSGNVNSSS

S1P1 [2] = target: T1, S1P1; test: S1P1 internalization assay in S1P1-U2OS cells (S1P1-EGFP), cell imaging; format: cell-based; design: host or cells: U2OS (human bone osteosarcoma epithelial cells), CMV promoter, geneticin selection; conditions: 1 hour incubation
Procedure: Cellular functional assays: Internalization of Sphingosine-1-phosphate receptor 1 (S1P1) in a human Cell line (U2OS) in a 384-well format using a Cell Imaging analysis. • Jo, E.; Sanna, M. G.; Gonzalez-Cabrera, P. J.; Thangada, S.; Tigyi, S.; Osborne, D. A.; Hla, T.; Parrill, A. L.; Rosen, H. Chem. Biol. 2005, 12, 703
The S1P1 internalization assay was performed in 384 well plates (Corning® 384 black with clear bottom 3712) using S1P1-U2OS cells from Biolmage (C039A), a human epithelial cell line (Human Bone Osteosarcoma Epithelial Cells). These cells expressed the human S1P1 Receptor fused to the green fluorescent protein (EGFP). A standard CMV promoter (cytomegalovirus promoter) controls the expression of S1P1-EGFP and continuous expression was maintained by addition of geneticin to the culture medium.
S1P1 Receptor desensitization induced the internalization of the membrane-localized S1P1-EGFP fusion protein to endosomes, which can be monitored by cell imaging analysis. The cells are plated in low serum medium (Dulbecco's Modified Eagle Medium (DMEM) with Glutamax-1 and high glucose, 1% Penicillin/Streptomycin, 1% Fetal Calf Serum (FCS), 0.5 mg/ml Geneticin) overnight.
The next day, S1P1-U2OS cells are incubated in 20 μl serum free medium (DMEM with Glutamax-1 and high glucose, 0.1% of fatty-acid free Bovin Serum Albumin (BSA), 10 mM, N′-2-Hydroxyethylpiperazine-N′-2 ethanesulphonic acid (HEPES) 1M) for 2 hours at 37° C./5% CO2. The cells are then treated with 4 μl compounds/agonists (6×/3% DMSO) for a total volume of 24 μl, and plates are incubated for 1 hour at 37° C./5% CO2.
S1P1-U2OS cells are fixed with 25 μl Paraformaldehyde 8% and stained with Hoechst 33345 dye (1:1000) for 20 minutes.
They were then washed 3 times with Phosphate Buffered Saline (PBS) and plates are sealed. The internalization of the receptor S1P1-EGFP is measured on Cellomics by calculating the “spot count per object” (“object” corresponds to nuclear and “spot” corresponds to S1P1-EGFP receptor). Internalization data were observed thanks to vHCS View and analyzed using Genedata® software.
Target sequence in this assay (P21453 whole entry): as the sequence (P21453 whole entry, species assumed) above

S1P3 = S1P3 (Homo sapiens, UniProt Q99500); test: Receptor binding assay, [33P]sphingosine 1-phosphate competition, S1P3 membranes, WGA SPA beads
Procedure: as §1, §2

[3] = 96 well-plate, read-out: S1P1 binding Ki (M) (96 well-plate)
[4] = 384 well-plate, read-out: S1P1 binding Ki (M) (384 well-plate)
[5] = 96 well-plate, read-out: S1P3 binding Ki (M) (96 well-plate)
[6] = 384 well-plate, read-out: S1P3 binding Ki (M) (384 well-plate)

S1P3, sequence (Q99500 whole entry, species assumed): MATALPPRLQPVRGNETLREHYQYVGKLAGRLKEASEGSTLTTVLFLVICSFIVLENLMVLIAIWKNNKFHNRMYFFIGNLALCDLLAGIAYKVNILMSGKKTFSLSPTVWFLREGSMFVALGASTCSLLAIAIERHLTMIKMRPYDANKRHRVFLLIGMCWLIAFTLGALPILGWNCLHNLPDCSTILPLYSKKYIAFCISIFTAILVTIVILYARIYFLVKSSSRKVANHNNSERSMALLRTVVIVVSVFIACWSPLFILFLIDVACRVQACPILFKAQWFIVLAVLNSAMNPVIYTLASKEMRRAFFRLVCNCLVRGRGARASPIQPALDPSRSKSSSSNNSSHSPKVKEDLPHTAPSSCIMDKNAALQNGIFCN

Row | Structure (SMILES) | Ki (S1P1 [1]; [3]) [M] | Ki (S1P1 [1]; [4]) [M] | EC50 (S1P1 [2]) [nM] | Ki (S1P3; [5]) [M] | Ki (S1P3; [6]) [M]
1 | Cc1ccccc1-c1ccc(-c2nc(-c3cccc(COCC(=O)O)c3)no2)cc1C(F)(F)F [Example 48, [(3-{5-[2′-methyl-2-(trifluoromethyl)biphenyl-4-yl]-1,2,4-oxadiazol-3-yl}benzyl)oxy]acetic acid] | 9.79e-10 | 1.97e-09 | 7.12 | 6.03e-07 | 1.08e-06
2 | COCc1cc(-c2nc(-c3ccc(CN(C)CC(=O)O)cc3)no2)ccc1-c1ccccc1C [Example 51, N-(4-{5-[2-(methoxymethyl)-2′-methylbiphenyl-4-yl]-1,2,4-oxadiazol-3-yl}benzyl)-N-methylglycine, hydrochloride salt] | 3.38e-10 | 2.1e-09 | 4.92 | 7.32e-07 | 9.17e-07
3 | COCc1cc(-c2nc(-c3ccc(CN(C)CC(=O)O)c(F)c3)no2)ccc1-c1ccccc1C [Example 52, N-(2-fluoro-4-{5-[2-(methoxymethyl)-2′-methylbiphenyl-4-yl]-1,2,4-oxadiazol-3-yl}benzyl)-N-methylglycine, hydrochloride salt] | 1.96e-10 | – | 2.52 | 1.27e-07 | –
4 | COCc1cc(-c2nc(-c3ccc(CN(C)CC(=O)O)c(Br)c3)no2)ccc1-c1ccccc1C [Example 53, N-(2-bromo-4-{5-[2-(methoxymethyl)-2′-methylbiphenyl-4-yl]-1,2,4-oxadiazol-3-yl}benzyl)-N-methylglycine, hydrochloride salt] | 2.14e-10 | – | 7.61 | 7e-07 | –
5 | COCc1cc(-c2nc(-c3ccc(CN(C)CC(=O)O)cc3)no2)ccc1-c1ccccc1F [Example 54, N-(4-{5-[2′-fluoro-2-(methoxymethyl)biphenyl-4-yl]-1,2,4-oxadiazol-3-yl}benzyl)-N-methylglycine, hydrochloride salt] | 3.04e-10 | 9.76e-10 | 6.36 | 3.21e-07 | 2.59e-07
6 | COCc1cc(-c2nc(-c3ccc(CN(C)CC(=O)O)c(F)c3)no2)ccc1-c1ccccc1F [Example 55, N-(2-fluoro-4-{5-[2′-fluoro-2-(methoxymethyl)biphenyl-4-yl]-1,2,4-oxadiazol-3-yl}benzyl)-N-methylglycine, hydrochloride salt] | 1.59e-10 | 5.23e-10 | 8.46 | 7.12e-08 | 9.2e-08
7 | CC1CCCCN1c1ccc(-c2nc(-c3cc(F)cc(CN(C)CC(=O)O)c3)no2)cc1C(F)(F)F (stereo not drawn) [Example 56, N-(3-fluoro-5-{5-[4-(2-methylpiperidin-1-yl)-3-(trifluoromethyl)phenyl]-1,2,4-oxadiazol-3-yl}benzyl)-N-methylglycine, hydrochloride salt] | 3.25e-10 | – | 20.2 | 3.79e-08 | –
8 | COCc1cc(-c2nc(-c3cc(F)cc(CN(C)CC(=O)O)c3)no2)ccc1-c1ccccc1F [Example 57, N-(3-fluoro-5-{5-[2′-fluoro-2-(methoxymethyl)biphenyl-4-yl]-1,2,4-oxadiazol-3-yl}benzyl)-N-methylglycine, hydrochloride salt] | 1.14e-10 | – | 8.46 | 7.22e-09 | –
9 | COCc1cc(-c2nc(-c3cccc(CN(CC(=O)O)C(C)C)c3)no2)ccc1-c1ccccc1C [Example 58, N-isopropyl-N-(3-{5-[2-(methoxymethyl)-2′-methylbiphenyl-4-yl]-1,2,4-oxadiazol-3-yl}benzyl)glycine, hydrochloride salt] | 3.91e-10 | – | 7.87 | 2.02e-07 | –
10 | COCc1cc(-c2nc(-c3cccc(CN(CC(=O)O)CC(C)C)c3)no2)ccc1-c1ccccc1C [Example 59, N-isobutyl-N-(3-{5-[2-(methoxymethyl)-2′-methylbiphenyl-4-yl]-1,2,4-oxadiazol-3-yl}benzyl)glycine, hydrochloride salt] | 1.1e-09 | 7.94e-09 | 74.5 | – | 8.49e-07
11 | COCc1cc(-c2nc(-c3ccc(CNCC(=O)O)cc3)no2)ccc1-c1ccccc1C [Example 60, N-(4-{5-[2-(methoxymethyl)-2′-methylbiphenyl-4-yl]-1,2,4-oxadiazol-3-yl}benzyl)glycine, hydrochloride salt] | 3.09e-10 | – | 1.78 | 1.93e-07 | –
12 | COCc1cc(-c2nc(-c3ccc(CNCC(=O)O)cc3)no2)ccc1-c1ccccc1F [Example 61, N-(4-{5-[2′-fluoro-2-(methoxymethyl)biphenyl-4-yl]-1,2,4-oxadiazol-3-yl}benzyl)glycine, hydrochloride salt] | 2.26e-10 | – | 3.36 | 1.91e-07 | –
13 | CCN(CCC(=O)O)Cc1cccc(-c2noc(-c3ccc(-c4ccccc4F)c(COC)c3)n2)c1 [Example 62, N-ethyl-N-(3-{5-[2′-fluoro-2-(methoxymethyl)biphenyl-4-yl]-1,2,4-oxadiazol-3-yl}benzyl)-beta-alanine, hydrochloride salt] | 1.68e-10 | – | 2.91 | 1.72e-08 | –
14 | CCN(CCC(=O)O)Cc1cccc(-c2noc(-c3ccc(-c4ccccc4C)c(COC)c3)n2)c1 [Example 63, N-ethyl-N-(3-{5-[2-(methoxymethyl)-2′-methylbiphenyl-4-yl]-1,2,4-oxadiazol-3-yl}benzyl)-beta-alanine, hydrochloride salt] | 1.61e-10 | – | 3.38 | 3.98e-08 | 1.25e-07
15 | COCc1cc(-c2nc(-c3cccc(CN(C)CC(=O)O)c3)no2)ccc1-c1cc(F)ccc1Cl [Example 65, N-(3-{5-[2′-chloro-5′-fluoro-2-(methoxymethyl)biphenyl-4-yl]-1,2,4-oxadiazol-3-yl}benzyl)-N-methylglycine, hydrochloride salt] | 5.31e-10 | – | 21.8 | 2.31e-07 | 3.68e-07
16 | COCc1cc(-c2nc(-c3cccc(CN(CCO)CCC(=O)O)c3)no2)ccc1-c1ccccc1C [Example 66, N-(2-hydroxyethyl)-N-(3-{5-[2-(methoxymethyl)-2′-methylbiphenyl-4-yl]-1,2,4-oxadiazol-3-yl}benzyl)-beta-alanine, hydrochloride salt] | 5.36e-10 | 2.42e-09 | 44.9 | – | 1.4e-06
17 | COCc1cc(-c2nc(-c3ccc(CN(C)CCC(=O)O)c(F)c3)no2)ccc1-c1ccccc1C [Example 73, N-(2-fluoro-4-{5-[2-(methoxymethyl)-2′-methylbiphenyl-4-yl]-1,2,4-oxadiazol-3-yl}benzyl)-N-methyl-beta-alanine, hydrochloride salt] | 1.07e-10 | – | 1.27 | 4.95e-08 | –
18 | COCc1cc(-c2nc(-c3ccc(CN(C)CCC(=O)O)cc3)no2)ccc1-c1ccccc1C [Example 74, N-(4-{5-[2-(methoxymethyl)-2′-methylbiphenyl-4-yl]-1,2,4-oxadiazol-3-yl}benzyl)-N-methyl-beta-alanine, hydrochloride salt] | 2.01e-10 | – | 1.46 | 1.08e-07 | –
